According to US8354414B2, “Substituted bicyclic pyrimidines” (Cephalon, Inc, priority 2006, dated 2013):
Where a name gives a salt, the structure may show the parent alone. Read-outs that look alike come from different tables or passages of the source.

How the values were obtained:
[1] = biological target: T1, CDK5/GST-p25 (Homo sapiens, UniProt Q00535); assay: Inhibition of CDK5/GST-p25 kinase activity (ELISA with time-resolved fluorescence readout); type: biochemical
T1 construct: The final construct, encoding for full-length human CDK5; made in house; host or cells: Sf21 insect cells (baculovirus co-infection)
T1 sequence (Q00535 whole entry): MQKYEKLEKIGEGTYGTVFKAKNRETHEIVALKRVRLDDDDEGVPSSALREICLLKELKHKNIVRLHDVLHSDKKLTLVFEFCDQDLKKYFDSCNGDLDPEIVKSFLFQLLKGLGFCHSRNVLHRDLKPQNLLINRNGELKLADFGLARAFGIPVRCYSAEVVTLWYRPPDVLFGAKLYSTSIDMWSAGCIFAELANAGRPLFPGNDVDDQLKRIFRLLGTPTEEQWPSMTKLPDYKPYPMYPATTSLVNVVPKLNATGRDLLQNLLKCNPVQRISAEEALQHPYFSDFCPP
T1 sequence (Q15078 108-307 partner limits assumed): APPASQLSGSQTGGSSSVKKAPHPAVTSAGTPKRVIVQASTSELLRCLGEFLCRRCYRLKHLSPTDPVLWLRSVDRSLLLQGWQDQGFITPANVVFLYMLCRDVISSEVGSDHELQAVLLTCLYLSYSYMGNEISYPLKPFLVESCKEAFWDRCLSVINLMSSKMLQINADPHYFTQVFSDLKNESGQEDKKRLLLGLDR
Method: Two recombinant baculoviral constructs were created, one encoding for human CDK5 and the other encoding for human p25 with an amino-terminal glutathione-S-transferase (GST) tag. PCR amplification of full-length CDK5 was performed utilizing human brain cDNA as a template and Pfu Turbo polymerase (Strategene). The PCR product from this reaction was subcloned into the baculoviral expression vector pFASTBAC1 (Gibco/BRL). The final construct, encoding for full-length human CDK5 (base pairs 25-903 of GenBank Accession #NM_004935), is 292 amino acids long with a predicted MW of 33.3 kDa.
For p25, the active truncated form of p35, amino acids 108-307 were PCR-amplified from human fetal brain cDNA (Clontech QUICK-Clone cDNA) using the Advantage 2 PCR system (Clontech). The PCR product was subcloned into the baculoviral transfer vector pFBGSTP (an engineered derivative of the baculoviral transfer vector pFASTBAC1). The final baculoviral construct encodes for base pairs 419-1021 of GenBank Accession #NM_003885, with an amino-terminal GST tag. The expressed GST-p25 is 444 amino acids long with a predicted MW of 50.3 kDa.
The CDK5/GST-p25 complex was generated by coexpression. Sf21 cells were cultured in TNM-FHS media at a density of 1.5×10^6 cells/mL and infected with each recombinant virus at MOI values of 5 (for CDK5) and 10 (for GST-p25). The cells were harvested 40 h after infection. For purification, the 100,000×g supernatant solution was used. Expression was confirmed by running samples on SDS-PAGE, followed by immunoblot analysis utilizing antibodies against CDK5 (anti-CDK5 (268-283); Calbiochem #219449) and p35 (Santa Cruz #sc820). The CDK5/GST-p25 complex was purified by glutathione affinity chromatography.
Compounds were tested for their ability to inhibit the kinase activity of recombinant baculoviral CDK5/GST-p25 using an enzyme-linked immunosorbent assay (ELISA) with time-resolved fluorescence (TRF) readout. Briefly, each 384-well FluoroNunc Maxisorp plate (Cat # 460372) plate was coated with 50 μl/well of 50 μg/ml substrate solution (recombinant GST-Rb(773-928)) in Tris-buffered saline (TBS). The CDK5/GST-p25 assay mixture (total volume=50 μl/well) consisting of 20 mM HEPES (pH 7.2), 10 μM ATP, 10 mM MgCl2, 5 mM EGTA, 25 mM β-glycerophosphate, 0.05% BSA, 2.5% DMSO, and various concentrations of test compound were then added to the assay plate. Enzyme (2 ng/ml CDK5/GST-p25) was added and the reaction was allowed to proceed at 37° C. for 20 minutes. Detection of the phosphorylated product was performed by adding 50 μl/well of phospho-Rb (Ser-780) antibody (Cell Signaling # 9307) diluted 1:10,000 in antibody dilution buffer (0.1% BSA in TBST). After 1-hour incubation at 37° C., 50 μl/well of Eu-Nl labelled anti-rabbit antibody (Wallac # AD0105; 1:50,000 in antibody dilution buffer) was added. Incubation at 37° C. then proceeded for 1 hour, followed by addition of 50 μl enhancement solution (Wallac #1244-105). The plate was gently agitated and after a few minutes, the fluorescence of the resulting solution was measured using a Multilabel Reader (Victor2 Model # 1420-018 or Envision Model # 2100). Inhibition data were analyzed using ActivityBase and IC50 curves were generated using XLFit 3.0.5.

[2] = biological target: T2, His6-GSK-3β (Homo sapiens, UniProt P49841); assay: Inhibition of His6-GSK-3β kinase activity (ELISA-based format, time-resolved fluorescence readout); type: biochemical; settings: for IC50: read-out: GSK3β IC50
T2 construct: made in house; host or cells: Sf21 insect cells (baculovirus)
T2 sequence (P49841 2-419): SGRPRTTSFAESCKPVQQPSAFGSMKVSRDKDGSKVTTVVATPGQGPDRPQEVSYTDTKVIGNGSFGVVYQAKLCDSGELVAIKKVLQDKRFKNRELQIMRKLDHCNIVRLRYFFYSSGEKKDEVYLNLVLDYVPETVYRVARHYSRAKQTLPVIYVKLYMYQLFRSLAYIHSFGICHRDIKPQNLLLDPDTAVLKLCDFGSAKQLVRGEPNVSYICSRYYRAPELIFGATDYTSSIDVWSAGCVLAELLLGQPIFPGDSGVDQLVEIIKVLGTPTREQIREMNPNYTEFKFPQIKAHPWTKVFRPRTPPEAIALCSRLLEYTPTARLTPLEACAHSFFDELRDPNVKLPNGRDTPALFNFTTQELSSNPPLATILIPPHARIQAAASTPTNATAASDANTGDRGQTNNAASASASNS
From the text: Full-length GSK-3β was amplified from a sequence-verified I.M.A.G.E. EST acquired from Research Genetics (Invitrogen, Clone ID# CSODB003YJ02). The final sequence-verified cDNA contained the coding region for a NH2-terminal tag, which encoded for 6 histidines and then eight vector-encoded amino acids prior to the start of GSK3β, which contained by # 43-1342 of Genbank Accession # NM_002093, encoding amino acids #2-419. The predicted molecular weight of the tagged, 435 amino acid, full-length protein is 48.5 kDa. The major structural element of this protein is the kinase domain, which is from amino acids #56-340. Recombinant baculoviral DNA was prepared by transposition in E. coli (BAC-TO-BAC system: Invitrogen) and the virus generated and amplified in Sf21 insect cells. A suspension culture of Sf21 cells was infected at an MOI of 0.7 and cell density of 1.5×10^6 cells/mL in Excell 420 serum-free media (JRH BioScience) and harvested 65 h after infection. The 100,000×g supernatant solution was used for purification. Expression was confirmed by running samples on SDS-PAGE, followed by immunoblot analysis utilizing both a Penta-HIS antibody (Qiagen #34660) and a GSK-3α/GSK-3β antibody (Calbiochem #368662, data not shown). The His6-tagged protein was purified to in one step by Ni-NTA affinity chromatography.
Inhibitory effects of compounds on baculoviral GSK-3β kinase activity were evaluated using an ELISA-based format in a 384-well FluoroNunc Maxisorp plate (Cat # 460372) with a time-resolved fluorescence readout. Briefly, each plate was coated with 50 μl/well of 20 μg/ml substrate solution (recombinant GST-Rb) in Tris-buffered saline (TBS). The GSK-3β assay mixture (total volume=50 μl/well) consisting of 50 mM HEPES (pH 7.2), 20 μM ATP, 10 mM MgCl2, 5 mM EGTA, 25 mM β-glycerophosphate, 0.05% BSA, 2.5% DMSO, and various concentrations of test compound were then added to the assay plate. Enzyme (200 ng/ml His6-GSK-3β) was then added and the reaction was allowed to proceed at 37° C. for 30 minutes. Detection of the phosphorylated product was performed by adding 50 μl/well of phospho-Rb (Ser-780) antibody (Cell Signaling # 9307) diluted 1:10,000 in antibody dilution buffer (0.1% BSA in TBST). After 1-hour incubation at 37° C., 50 μl/well of Eu-N1 labelled anti-rabbit antibody (Wallac # AD0105; 1:50,000 in antibody dilution buffer) was added. Incubation at 37° C. then proceeded for 1 hour, followed by addition of 50 μl enhancement solution (Wallac #1244-105). The plate was gently agitated and after a few minutes, the fluorescence of the resulting solution was measured using a Multilabel Reader (Victor2 Model # 1420-018 or Envision Model 2100). Inhibition data were analyzed using ActivityBase and IC50 curves were generated using XLFit 3.0.5.

SMILES	IC50 ([1]; class symbols)	IC50 ([2]; class symbols)	GSK3β % @10 μM [2]	IC50 ([1]; numeric bounds)	IC50 ([2]; numeric bounds)
N#Cc1ccc2c(c1)C(c1ncnc3nn(C4CCCCC4)cc13)C(=O)N2 (stereo not shown) [Example 45, 3-(2-Cyclohexyl-2H-pyrazolo [3,4-d]pyrimidin-4-yl)-2-oxo-2,3-dihydro-1H-indole-5-carbonitrile]	< 0.3 µM	< 0.3 µM	–	–	–
N#Cc1ccc2c(c1)C(c1nc(Nc3ccc(N4CCS(=O)(=O)CC4)cc3)nc3nn(C4CCCC4)cc13)C(=O)N2 (stereo not shown) [Example 135, 3-{2-Cyclopentyl-6-[4-(1,1-dioxo-1λ^6-thiomorpholin-4-yl)-phenylamino]-2H-pyrazolo[3,4-d]pyrimidin-4-yl}-2-oxo-2,3-dihydro-1H-indole-5-carbonitrile]	> 10 µM	< 0.3 µM	–	–	–
O=C1Nc2ccc(Cl)cc2C1c1nc(NCc2ccc(C(F)(F)F)nc2)nc2c1CCC2 (stereo not shown) [Example 329, 5-Chloro-3-{2-[(6-trifluoromethyl-pyridin-3-ylmethyl)-amino]-6,7-dihydro-5H-cyclopentapyrimidin-4-yl}-1,3-dihydro-indol-2-one]	> 10 µM	> 10 µM	–	–	–
CCOCCn1cc2c(C3C(=O)Nc4ccc(Cl)cc43)nc(NCc3cccnc3)nc2n1 (stereo not shown) [Example 213, 5-Chloro-3-{2-(2-ethoxy-ethyl)-6[(pyridin-3-ylmethyl)-amino]-2H-pyrazolo[3,4-d]pyrimidin-4-yl}-1,3-dihydro-indol-2-one]	< 0.3 µM	< 0.3 µM	–	–	–
CCOCCNc1nc2c(c(C3C(=O)Nc4ccc(C#N)cc43)n1)CCC2 (stereo not shown) [Example 344, 3-[2-(2-Ethoxy-ethylamino)-6,7-dihydro-5H-cyclopentapyrimidin-4-yl]-2-oxo-2,3-dihydro-1H-indole-5-carbonitrile]	0.3 to 3 µM	–	69% @10 μM	–	–
CN(Cc1cccnc1)c1nc(C2C(=O)Nc3ccc(C#N)cc32)c2cn(C3CCCC3)nc2n1 (stereo not shown) [Example 172, 3-[2-Cyclopentyl-6-(methyl-pyridin-3-ylmethyl-amino)-2H-pyrazolo [3,4-d]pyrimidin-4-yl]-2-oxo-2,3-dihydro-1H-indole-5-carbonitrile]	> 10 µM	< 0.3 µM	–	–	–
CN(C)CCNc1nc(C2C(=O)Nc3ccc(Br)cc32)c2cn(C3CCCC3)nc2n1 (stereo not shown) [Example 370, 5-Bromo-3-[2-cyclopentyl-6-(2-dimethylamino-ethylamino)-2H-pyrazolo [3,4-d]pyrimidin-4-yl]-1,3-dihydro-indol-2-one]	–	< 0.3 µM	–	> 3 µM	–
CCOCCNc1nc2c(c(C3C(=O)Nc4ccc(Br)cc43)n1)CCC2 (stereo not shown) [Example 334, 5-Bromo-3-[2-(2-ethoxy-ethylamino)-6,7-dihydro-5H-cyclopentapyrimidin-4-yl]-1,3-dihydro-indol-2-one]	> 10 µM	> 10 µM	–	–	–
CCCCN1CCC(CNc2nc(C3C(=O)Nc4ccc(Cl)cc43)c3cn(C4CCCC4)nc3n2)CC1 (stereo not shown) [Example 275, 3-{6-[(1-Butyl-piperidin-4-ylmethyl)-amino]-2-cyclopentyl-2H-pyrazolo[3,4-d]pyrimidin-4-yl}-5-chloro-1,3-dihydro-indol-2-one]	> 10 µM	< 0.3 µM	–	–	–
O=C1Nc2ccc(F)cc2C1c1nc(NCc2cccnc2)nc2c1CCC2 (stereo not shown) [Example 321, 5-Fluoro-3-{2-[(pyridin-3-ylmethyl)-amino]-6,7-dihydro-5H-cyclopentapyrimidin-4-yl}-1,3-dihydro-indol-2-one]	–	–	–	> 3 µM	> 3 µM
C[C@@H](O)CNc1nc(C2C(=O)Nc3ccc(Br)cc32)c2cn(C)nc2n1 (stereo partly drawn) [Example 358, 5-Bromo-3-[6-(2-(R)-hydroxy-propylamino)-2-methyl-2H-pyrazolo [3,4-d]pyrimidin-4-yl]-1,3-dihydroindol-2-one]	< 0.3 µM	< 0.3 µM	–	–	–

The remaining lines, values ahead:

IC50 ([1]; class symbols)	IC50 ([2]; class symbols)	GSK3β % @10 μM [2]	IC50 ([1]; numeric bounds)	IC50 ([2]; numeric bounds)	SMILES
> 10 µM	> 10 µM	–	–	–	O=C1Nc2ccc(F)cc2C1c1nc(Cl)nc2c1CCC2 (stereo not shown) [Example 315, 3-(2-Chloro-6,7-dihydro-5H-cyclopentapyrimidin-4-yl)-5-fluoro-1,3-dihydro-indol-2-one]
> 10 µM	–	67% @10 μM	–	–	N#Cc1ccc2c(c1)C(c1nc(NCCc3ccncc3)nc3c1CCC3)C(=O)N2 (stereo not shown) [Example 345, 2-Oxo-3-[2-(2-pyridin-4-yl-ethylamino)-6,7-dihydro-5H-cyclopentapyrimidin-4-yl]-2,3-dihydro-1H-indole-5-carbonitrile]
–	–	–	> 3 µM	> 3 µM	CN(C)CCCNc1nc2c(c(C3C(=O)Nc4ccc(Br)cc43)n1)CCC2 (stereo not shown) [Example 335, 5-Bromo-3-[2-(3-dimethylamino-propylamino)-6,7-dihydro-5H-cyclopentapyrimidin-4-yl]-1,3-dihydro-indol-2-one]
> 10 µM	> 10 µM	–	–	–	O=C1Nc2ccc(Br)cc2C1c1nc(Cl)nc2c1CCC2 (stereo not shown) [Example 314, 5-Bromo-3-(2-chloro-6,7-dihydro-5H-cyclopentapyrimidin-4-yl)-1,3-dihydro-indol-2-one]
0.3 to 3 µM	< 0.3 µM	–	–	–	N#Cc1ccc2c(c1)C(c1nc(NN)nc3nn(C4CCCC4)cc13)C(=O)N2 (stereo not shown) [Example 124, 3-(2-cyclopentyl-6-hydrazino-2H-pyrazolo [3,4-d]pyrimidin-4-yl)-2-oxo-2,3-dihydro-1H-indole-5-carbonitrile]
0.3 to 3 µM	0.3 to 3 µM	–	–	–	CNCCNc1nc(C2C(=O)Nc3ccc(Br)cc32)c2cn(C)nc2n1 (stereo not shown) [Example 360, 5-Bromo-3-[2-methyl-6-(2-methylamino-ethylamino)-2H-pyrazolo[3,4-d]pyrimidin-4-yl]-1,3-dihydro-indol-2-one hydrochloride salt]
